Data published in US10947252B2, “Inhibitors of KEAP1-Nrf2 protein-protein interaction” (Janssen Pharmaceutica NV, priority 2018, dated 2021).

Columns and labels:
[1] = biological target: Kelch domain of human KEAP1 (321-624 aa) (Homo sapiens (Human), UniProt Q14145); assay: KEAP1 KELCH ThermoFluor binding assay; details: KEAP Kelch […], 1,8-ANS, pH 7.0, average of results obtained, read-out: Tf Kd;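 also: Ligand-induced melting temperature shift of E. coli-expressed KEAP1 Kelch protein, Kd estimated from concentration-response curves of ΔTm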
[2] = system: Glo-Response ARE-luc2P HEK293 cell line; assay: ARE luciferase reporter cell-based assay; details: Homo sapiens, HEK293, 24 h, average of results obtained;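 also: luciferase signal tracks Nrf2 activation of the ARE once compounds disrupt KEAP1-Nrf2 binding, read with One-Glo reagent, DMSO serving as low control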
Description: The ARE assay utilizes a luciferase reporter cell line where the signal is proportional to NrF2 activation of the ARE. The cell line is commercially available from Promega and was prepared by stably transfecting HEK293 cells with a vector (pGL4.11) which contains the ARE response element upstream of a minimal promoter. The promoter drives expression of luc2 firefly luciferase gene. Upon disruption of KEAP1-Nrf2 binding by compound, Nrf2 translocates into the nucleus where it binds to the ARE and activates transcription of luciferase.
The materials used in this ARE assay are as follows: Glo-Response ARE-luc2P HEK293 cell line and One-Glo Luciferase Assay System were purchased from Promega (Madison, Wis.). Dulbecco's Modified Eagle medium ((DMEM), low glucose, GlutaMAX, pyruvate), fetal bovine serum (certified, heat inactivated), hygromycin B, Dulbecco's phosphate-buffered saline were purchased from Life Technologies (Grand Island, N.Y.). Penicillin, streptomycin solution (100×) and 0.05% trypsin-EDTA were purchased from Corning (Manassas, Va.). DMSO was purchased from EMD Millipore.
The ARE assay protocol is as follows: cells were maintained in growth medium (DMEM+10% FBS, 200 μg/mL hygromycin B, p-s) between 20-90% confluency by splitting twice per week. One day before the assay, cells were trypsinized, counted to determine viable cell count, and re-suspended in assay medium (DMEM+10% FBS, p-s) at 250,000 cells/mL. […] 100% DMSO was used as the low control. A 11-point dose series of the control compound was included on every plate. Compounds were spotted to an intermediate plate (Greiner #781280 V-bottom 384 well plate) using the Echo acoustic dispenser (Labscyte San Jose, Calif.). Spot size was 240 nL.
On the day of the assay, 60 mL per well of assay medium was added to the pre-spotted plate to make 2× compound stocks using the Combi (Thermo Waltham, Mass.). Compound and medium were mixed on the Janus and 20 mL of 2×compound stock was added to the cell plate which already contained 20 mL of assay medium from cell plating. […] The plates were returned to the tissue culture incubator for 24 hours.
The next day, luciferase activity was measured according to the manufacturer's protocol for One-Glo luciferase reagent. The plates were removed from the incubator and allowed to equilibrate to room temperature for 30 min. Forty microliters of One-Glo reagent (equilibrated to room temperature) was added per well using the Combi. The plates were mixed on an orbital shaker for 3 min. Luminescence was read on the BMG Pherastar multiplate reader (Cary, N.C.) using the luminescence protocol (1 sec interval).
The dose-response data were analyzed in Genedata Screener using 4PL nonlinear regression model. Raw luminescence counts as well as normalized values were used for data analysis.

Kelch domain of human KEAP1 (321-624 aa), sequence (Q14145 321-624): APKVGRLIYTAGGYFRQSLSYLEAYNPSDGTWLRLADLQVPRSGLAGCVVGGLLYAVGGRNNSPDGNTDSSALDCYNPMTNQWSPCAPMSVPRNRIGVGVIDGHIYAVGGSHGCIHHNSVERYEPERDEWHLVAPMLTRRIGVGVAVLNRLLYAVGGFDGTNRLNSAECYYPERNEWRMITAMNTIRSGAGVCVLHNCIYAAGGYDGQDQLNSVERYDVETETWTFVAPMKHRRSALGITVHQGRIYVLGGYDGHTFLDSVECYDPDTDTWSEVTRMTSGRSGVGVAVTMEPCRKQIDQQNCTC

| Compound | Kd [1] [nM] | EC50 [2] [nM] |
| --- | --- | --- |
| CCn1nnc2c(C)c([C@H](c3ccc(C)c(CN4CC5(CCOCC5)Oc5ncccc5S4(=O)=O)n3)C(C)(C)C(=O)O)ccc21 (single isomer, unassigned) [Example 555, (*S)-3-(6-((1′,1′-Dioxido-2,3,5,6-tetrahydrospiro[pyran-4,4′-pyrido[2,3-b][1,4,5]oxathiazepin]-2′(3′H)-yl)methyl)-5-methylpyridin-2-yl)-3-(1-ethyl-4-methyl-1H-benzo[d][1,2,3]triazol-5-yl)-2,2-dimethylpropanoic Acid] | < 1 | 1.42 |
| Cc1ccc([C@@H](CC(=O)O)c2cc(OC3CC3)c3c(c2)nnn3C)cc1CN1C[C@H]2CCCCN2c2ncccc2S1(=O)=O (single isomer, unassigned) [Example 404, (*R)-3-(7-Cyclopropoxy-1-methyl-1H-benzo[d][1,2,3]triazol-5-yl)-3-(3-(((*R)-5,5-dioxido-7,7a,8,9,10,11-hexahydro-6H-dipyrido[2,1-d:2′,3′-f][1,2,5]thiadiazepin-6-yl)methyl)-4-methylphenyl)propanoic Acid] | < 1 | 19.6 |
| Cc1cnc2c(c1)S(=O)(=O)N(Cc1nc([C@H](c3ccn4c(C(F)F)nnc4c3C)C(C)(C)C(=O)O)ccc1C)CC1(CNC1)O2 (single isomer, unassigned) [Example 631, (*R)-3-(3-(Difluoromethyl)-8-methyl-[1,2,4]triazolo[4,3-a]pyridin-7-yl)-2,2-dimethyl-3-(5-methyl-6-((8′-methyl-1′,1′-dioxidospiro[azetidine-3,4′-pyrido[2,3-b][1,4,5]oxathiazepin]-2′(3′H)-yl)methyl)pyridin-2-yl)propanoic Acid] | 1.08 | 76.8 |
| Cc1ccc([C@H](CC(=O)O)c2ccc3c(nnn3C3CC3)c2C)cc1CN1C[C@H]2CCCCN2c2ncccc2S1(=O)=O (single isomer, unassigned) [Example 212, (*S)-3-(1-Cyclopropyl-4-methyl-1H-benzo[d][1,2,3]triazol-5-yl)-3-(3-(((*R)-5,5-dioxido-7,7a,8,9,10,11-hexahydro-6H-dipyrido[2,1-d:2′,3′-f][1,2,5]thiadiazepin-6-yl)methyl)-4-methylphenyl)propanoic Acid] | < 1 | 3.7 |
| Cc1ccc(C(CC(=O)O)c2ccn3c(C(F)F)nnc3c2C)cc1CN1C[C@@H]2CCCCN2c2ncccc2S1(=O)=O (stereo in doubt) [Example 446, 3-(3-(Difluoromethyl)-8-methyl-[1,2,4]triazolo[4,3-a]pyridin-7-yl)-3-(3-(((*S)-5,5-dioxido-7,7a,8,9,10,11-hexahydro-6H-dipyrido[2,1-d:2′,3′-f][1,2,5]thiadiazepin-6-yl)methyl)-4-methylphenyl)propanoic Acid] | < 1 | 23.8 |
| Cc1cnc2c(c1)S(=O)(=O)N(Cc1cc([C@@H](c3ccc4c(nnn4C4CC4)c3C)C(C)(C)C(=O)O)cnc1C)CC1(CCOCC1)O2 (single isomer, unassigned) [Example 229, (*R)-3-(1-Cyclopropyl-4-methyl-1H-benzo[d][1,2,3]triazol-5-yl)-2,2-dimethyl-3-(6-methyl-5-((8′-methyl-1′,1′-dioxido-2,3,5,6-tetrahydrospiro[pyran-4,4′-pyrido[2,3-b][1,4,5]oxathiazepin]-2′(3′H)-yl)methyl)pyridin-3-yl)propanoic Acid] | 17000 | 2430 |
| CCn1nnc2c(C)c([C@@H](c3ccc(C)c(CN4CC5(CCOCC5)Oc5ncc(C)cc5S4(=O)=O)n3)C(C)(C)C(=O)O)ccc21 (single isomer, unassigned) [Example 558, (*R)-3-(1-Ethyl-4-methyl-1H-benzo[d][1,2,3]triazol-5-yl)-2,2-dimethyl-3-(5-methyl-6-((8′-methyl-1′,1′-dioxido-2,3,5,6-tetrahydrospiro[pyran-4,4′-pyrido[2,3-b][1,4,5]oxathiazepin]-2′(3′H)-yl)methyl)pyridin-2-yl)propanoic Acid] | 343 | 195 |
| CCc1nnc2c(C)c([C@H](CC(=O)O)c3ccc(C)c(CN4C[C@H]5CCCN5c5ccccc5S4(=O)=O)c3)ccn12 (single isomer, unassigned) [Example 280, (*R)-3-(3-(((R)-5,5-Dioxido-7a,8,9,10-tetrahydrobenzo[f]pyrrolo[2,1-d][1,2,5]thiadiazepin-6(7H)-yl)methyl)-4-methylphenyl)-3-(3-ethyl-8-methyl-[1,2,4]triazolo[4,3-a]pyridin-7-yl)propanoic Acid] | < 1 | 4010 |

Further lines, with some results ahead:

| Kd [1] [nM] | Compound | EC50 [2] [nM] |
| --- | --- | --- |
| 52.5 | Cc1cnc2c(c1)S(=O)(=O)N(Cc1cc([C@H](c3ccn4c(C(F)F)nnc4c3C)C(C)(C)C(=O)O)ccc1C)CC1(CC1)O2 (single isomer, unassigned) [Example 561, (*R)-3-(3-(Difluoromethyl)-8-methyl-[1,2,4]triazolo[4,3-a]pyridin-7-yl)-2,2-dimethyl-3-(4-methyl-3-((8′-methyl-1′,1′-dioxidospiro[cyclopropane-1,4′-pyrido[2,3-b][1,4,5]oxathiazepin]-2′(3′H)-yl)methyl)phenyl)propanoic Acid] | 258 |
| < 1 | Cc1ccc(C(c2ccn3c(C(F)(F)F)nnc3c2C)C(C)(C)C(=O)O)cc1CN1CC2(CCOCC2)Oc2nc(N[C@H](C)CCO)ccc2S1(=O)=O (stereo partly drawn) [Example 117] | 425 |
| < 1 | Cc1ccc([C@@H](c2ccn3c(C(F)F)nnc3c2C)C(C)(C)C(=O)O)cc1CN1CC2(CCOCC2)Oc2nc(OCCN3CCCCC3)c(C)cc2S1(=O)=O (single isomer, unassigned) [Example 379, (*S)-3-(3-(Difluoromethyl)-8-methyl-[1,2,4]triazolo[4,3-a]pyridine-7-yl)-2,2-dimethyl-3-(4-methyl-3-((8′-methyl-1′,1′-dioxido-7′-(2-(piperidin-1-yl)ethoxy)-2,3,5,6-tetrahydrospiro[pyran-4,4′-pyrido[2,3-b][1,4,5]oxathiazepin]-2′(3′H)-yl)methyl)phenyl)propanoic Acid] | 12.3 |
| < 1 | Cc1ccc2c(n1)OC1(CC1)CN(Cc1cc([C@H](CC(=O)O)c3ccn4c(C(F)(F)F)nnc4c3C)ccc1C)S2(=O)=O (single isomer, unassigned) [Example 538, (*S)-3-(4-Methyl-3-((7′-methyl-1′,1′-dioxidospiro[cyclopropane-1,4′-pyrido[2,3-b][1,4,5]oxathiazepin]-2′(3′H)-yl)methyl)phenyl)-3-(8-methyl-3-(trifluoromethyl)-[1,2,4]triazolo[4,3-a]pyridin-7-yl)propanoic Acid] | 58.9 |
| < 1 | Cc1ccc(C(CC(=O)O)c2ccn3c(C(F)(F)F)nnc3c2C)cc1CN1C[C@@H]2CCCCN2c2ncccc2S1(=O)=O (stereo in doubt) [Example 289, 3-(3-(((*S)-5,5-Dioxido-7,7a,8,9,10,11-hexahydro-6H-dipyrido[2,1-d:2′,3′-f][1,2,5]thiadiazepin-6-yl)methyl)-4-methylphenyl)-3-(8-methyl-3-(trifluoromethyl)-[1,2,4]triazolo[4,3-a]pyridin-7-yl)propanoic Acid] | 19.3 |
| 1.24 | Cc1cnc2c(c1)S(=O)(=O)N(Cc1cc([C@@H](c3ccn4c(C(F)(F)F)nnc4c3C)C(C)(C)C(=O)O)ccc1C)CC1(CCNCC1)O2 (single isomer, unassigned) [Example 340, (*S)-2,2-Dimethyl-3-(4-methyl-3-((8′-methyl-1′,1′-dioxidospiro[piperidine-4,4′-pyrido[2,3-b][1,4,5]oxathiazepin]-2′(3′H)-yl)methyl)phenyl)-3-(8-methyl-3-(trifluoromethyl)-[1,2,4]triazolo[4,3-a]pyridin-7-yl)propanoic Acid] | 629 |
| < 1 | Cc1cnc2c(c1)S(=O)(=O)N(Cc1cc([C@H](CC(=O)O)c3ccn4c(C(F)(F)F)nnc4c3C)ccc1C)CC1(CCOCC1)O2 (single isomer, unassigned) [Example 208, (*S)-3-(4-Methyl-3-((8′-methyl-1′,1′-dioxido-2,3,5,6-tetrahydrospiro[pyran-4,4′-pyrido[2,3-b][[,4,5]oxathiazepin]-2′(3′H)-yl)methyl)phenyl)-3-(8-methyl-3-(trifluoromethyl)-[1,2,4]triazolo[4,3-a]pyridin-7-yl)propanoic Acid] | 19 |
| < 1 | Cc1ccc([C@@H](c2ccn3c(C(F)(F)F)nnc3c2C)C(C)(C)C(=O)O)cc1CN1CC2(CCOCC2)Oc2nc(OCCN3CCOCC3)ccc2S1(=O)=O (single isomer, unassigned) [Example 47, (*S)-2,2-Dimethyl-3-(4-methyl-3-((7′-(2-morpholinoethoxy)-1′,1′-dioxido-2,3,5,6-tetrahydrospiro[pyran-4,4′-pyrido[2,3-b][1,4,5]oxathiazepin]-2′(3′H)-yl)methyl)phenyl)-3-(8-methyl-3-trifluoromethyl)-[1,2,4]triazolo[4,3-a]pyridine-7-yl)propanoic Acid] | 17.9 |
| 1.1 | Cc1ccc([C@H](CC(=O)O)c2ccn3c(C(F)(F)F)nnc3c2C)cc1CN1CC(C)(C)Oc2ccccc2S1(=O)=O (single isomer, unassigned) [Example 285, (*S)-3-(3-((4,4-Dimethyl-1,1-dioxido-3,4-dihydro-2H-benzo[b][1,4,5]oxathiazepin-2-yl)methyl)-4-methylphenyl)-3-(8-methyl-3-(trifluoromethyl)-[1,2,4]triazolo[4,3-a]pyridin-7-yl)propanoic Acid] | 129 |
| 4250 | Cc1ccc([C@H](c2ccn3c(C(F)(F)F)nnc3c2C)C(C)(C)C(=O)O)nc1CN1CC2(CCOCC2)Oc2ncccc2S1(=O)=O (single isomer, unassigned) [Example 39, (*R)-3-(6-((1′,1′-Dioxido-2,3,5,6-tetrahydrospiro[pyran-4,4′-pyrido[2,3-b][1,4,5]oxathiazepin]-2′(3′H)-yl)methyl)-5-methylpyridin-2-yl)-2,2-dimethyl-3-(8-methyl-3-(trifluoromethyl)-[1,2,4]triazolo[4,3-a]pyridin-7-yl)propanoic Acid] | 1260 |
